# According to ChEMBL document CHEMBL1201862, “PubChem BioAssay data set” (2004):
#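 The compound was tested at five concentrations on cells cultured in 96-well plates, with a 48-hour exposure period. GI50 = concentration required for 50% inhibition of growth.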 Activity calls are given as the source filed them. Cut-off read from the data, not from the text of the source: active = GI50 up to about 1.1 µM and inactive = higher.
# What was measured:
# Test in all cases: NCI tumour cell line growth inhibition, 48 h
# MDA-MB-231 = test system: MDA-MB-231
# SK-MEL-28 = test system: SK-MEL-28
# SF-268 = test system: SF-268
# UACC-62 = test system: UACC-62
# CCRF-CEM = test system: CCRF-CEM
# EKVX = test system: EKVX
# HOP-92 = test system: HOP-92
# NCI-H226 = test system: NCI-H226
# KM12 = test system: KM12
# MOLT-4 = test system: MOLT-4
# PC-3 = test system: PC-3
# K562 = test system: K562
# OVCAR-5 = test system: OVCAR-5
# MCF7 = test system: MCF7
# HL-60 = test system: HL-60
# HCT-116 = test system: HCT-116
# Malme-3M = test system: Malme-3M
# IGROV-1 = test system: IGROV-1
# SK-MEL-5 = test system: SK-MEL-5
# MDA-MB-435 = test system: MDA-MB-435
# LOX IMVI = test system: LOX IMVI
# SN12C = test system: SN12C
# SNB-19 = test system: SNB-19
# NCI/ADR-RES = test system: NCI/ADR-RES
# T47D = test system: T47D
# M14 = test system: M14
# TK-10 = test system: TK-10
# OVCAR-8 = test system: OVCAR-8
# U-251 = test system: U-251
# SR = test system: SR
# RPMI-8226 = test system: RPMI-8226
# OVCAR-4 = test system: OVCAR-4
# RXF 393 = test system: RXF 393
# 786-0 = test system: 786-0
# NCI-H460 = test system: NCI-H460
# NCI-H522 = test system: NCI-H522
# SW-620 = test system: SW-620
# OVCAR-3 = test system: OVCAR-3
# SNB-75 = test system: SNB-75
# HCC 2998 = test system: HCC 2998
# A549 = test system: A549
# ACHN = test system: ACHN
# SF-295 = test system: SF-295
# SK-OV-3 = test system: SK-OV-3
# NCI-H23 = test system: NCI-H23
# UACC-257 = test system: UACC-257
# HCT-15 = test system: HCT-15
# COLO 205 = test system: COLO 205
# DU-145 = test system: DU-145
# A498 = test system: A498
# Hs-578T = test system: Hs-578T
# MDA-N = test system: MDA-N
# SF-539 = test system: SF-539
# UO-31 = test system: UO-31
# HT-29 = test system: HT-29
# HOP-62 = test system: HOP-62
# CAKI-1 = test system: CAKI-1
# SK-MEL-2 = test system: SK-MEL-2
smiles,measurement,setting,value
Cc1ccc2c(c1)CC1(Cc3ccccc3C1=O)C2=O (centres undefined),GI50,MDA-MB-231,> 100 µM (inactive)
same,GI50,SK-MEL-28,> 100 µM (inactive)
same,GI50,SF-268,> 100 µM (inactive)
same,GI50,UACC-62,> 100 µM (inactive)
same,GI50,CCRF-CEM,> 100 µM (inactive)
same,GI50,EKVX,> 100 µM (inactive)
same,GI50,HOP-92,64.3 µM (inactive)
same,GI50,NCI-H226,> 100 µM (inactive)
same,GI50,KM12,> 100 µM (inactive)
same,GI50,MOLT-4,> 100 µM (inactive)
same,GI50,PC-3,> 100 µM (inactive)
same,GI50,K562,> 100 µM (inactive)
same,GI50,OVCAR-5,55.6 µM (inactive)
same,GI50,MCF7,> 100 µM (inactive)
same,GI50,HL-60,> 100 µM (inactive)
same,GI50,HCT-116,> 100 µM (inactive)
same,GI50,Malme-3M,> 100 µM (inactive)
same,GI50,IGROV-1,> 100 µM (inactive)
same,GI50,SK-MEL-5,> 100 µM (inactive)
same,GI50,MDA-MB-435,> 100 µM (inactive)
same,GI50,LOX IMVI,> 100 µM (inactive)
same,GI50,SN12C,> 100 µM (inactive)
same,GI50,SNB-19,> 100 µM (inactive)
same,GI50,NCI/ADR-RES,> 100 µM (inactive)
same,GI50,T47D,> 100 µM (inactive)
same,GI50,M14,> 100 µM (inactive)
same,GI50,TK-10,> 100 µM (inactive)
same,GI50,OVCAR-8,> 100 µM (inactive)
same,GI50,U-251,> 100 µM (inactive)
same,GI50,SR,> 100 µM (inactive)
same,GI50,RPMI-8226,> 100 µM (inactive)
same,GI50,OVCAR-4,> 100 µM (inactive)
same,GI50,RXF 393,> 100 µM (inactive)
same,GI50,786-0,> 100 µM (inactive)
same,GI50,NCI-H460,> 100 µM (inactive)
same,GI50,NCI-H522,> 100 µM (inactive)
same,GI50,SW-620,> 100 µM (inactive)
same,GI50,OVCAR-3,> 100 µM (inactive)
same,GI50,SNB-75,> 100 µM (inactive)
same,GI50,HCC 2998,> 100 µM (inactive)
same,GI50,A549,> 100 µM (inactive)
same,GI50,ACHN,> 100 µM (inactive)
same,GI50,SF-295,> 100 µM (inactive)
same,GI50,SK-OV-3,> 100 µM (inactive)
same,GI50,NCI-H23,> 100 µM (inactive)
same,GI50,UACC-257,> 100 µM (inactive)
same,GI50,HCT-15,> 100 µM
same,GI50,COLO 205,> 100 µM (inactive)
same,GI50,DU-145,> 100 µM (inactive)
same,GI50,A498,> 100 µM (inactive)
same,GI50,Hs-578T,> 100 µM (inactive)
same,GI50,MDA-N,> 100 µM (inactive)
same,GI50,SF-539,> 100 µM (inactive)
same,GI50,UO-31,> 100 µM (inactive)
same,GI50,HT-29,> 100 µM (inactive)
same,GI50,HOP-62,44.4 µM (inactive)
CN(C)c1n/c(=N/Cc2ccccc2)ss1,GI50,MDA-MB-231,> 10 µM (inactive)
same,GI50,SK-MEL-28,> 10 µM (inactive)
same,GI50,SF-268,> 10 µM (inactive)
same,GI50,UACC-62,> 10 µM (inactive)
same,GI50,CCRF-CEM,0.646 µM (active)
same,GI50,EKVX,> 10 µM (inactive)
same,GI50,HOP-92,> 10 µM (inactive)
same,GI50,NCI-H226,> 10 µM (inactive)
same,GI50,KM12,> 10 µM (inactive)
same,GI50,MOLT-4,1.81 µM (inactive)
same,GI50,PC-3,> 10 µM (inactive)
same,GI50,K562,3.21 µM (inactive)
same,GI50,OVCAR-5,> 10 µM (inactive)
same,GI50,MCF7,> 10 µM (inactive)
same,GI50,HL-60,> 5.2 µM (inactive)
same,GI50,HCT-116,> 10 µM (inactive)
same,GI50,Malme-3M,> 10 µM (inactive)
same,GI50,IGROV-1,> 10 µM (inactive)
same,GI50,SK-MEL-5,> 10 µM (inactive)
same,GI50,MDA-MB-435,> 10 µM (inactive)
same,GI50,LOX IMVI,> 5.77 µM (inactive)
same,GI50,SN12C,> 10 µM (inactive)
same,GI50,SNB-19,> 10 µM (inactive)
same,GI50,NCI/ADR-RES,> 10 µM (inactive)
same,GI50,T47D,> 10 µM (inactive)
same,GI50,M14,> 10 µM (inactive)
same,GI50,TK-10,> 10 µM (inactive)
same,GI50,OVCAR-8,> 10 µM (inactive)
same,GI50,U-251,> 10 µM (inactive)
same,GI50,SR,0.587 µM (active)
same,GI50,RPMI-8226,2.9 µM (inactive)
same,GI50,OVCAR-4,> 10 µM (inactive)
same,GI50,RXF 393,> 10 µM (inactive)
same,GI50,786-0,> 6.82 µM (inactive)
same,GI50,NCI-H460,> 10 µM (inactive)
same,GI50,NCI-H522,2.61 µM (inactive)
same,GI50,SW-620,> 10 µM (inactive)
same,GI50,CAKI-1,> 10 µM (inactive)
same,GI50,OVCAR-3,> 10 µM (inactive)
same,GI50,SNB-75,> 10 µM (inactive)
same,GI50,HCC 2998,> 9.64 µM (inactive)
same,GI50,A549,> 10 µM (inactive)
same,GI50,ACHN,> 10 µM (inactive)
same,GI50,SF-295,> 10 µM (inactive)
same,GI50,SK-OV-3,> 10 µM (inactive)
same,GI50,NCI-H23,> 10 µM (inactive)
same,GI50,UACC-257,> 10 µM (inactive)
same,GI50,HCT-15,> 10 µM
same,GI50,COLO 205,> 10 µM (inactive)
same,GI50,DU-145,> 10 µM (inactive)
same,GI50,A498,> 10 µM (inactive)
same,GI50,Hs-578T,> 10 µM (inactive)
same,GI50,MDA-N,> 10 µM (inactive)
same,GI50,SF-539,> 10 µM (inactive)
same,GI50,UO-31,9.25 µM (inactive)
same,GI50,HT-29,> 10 µM (inactive)
same,GI50,HOP-62,> 10 µM (inactive)
Cc1cn(C2CC(OP(=O)(O)OCC3OC(n4c[n+]([BH2-]C#N)c5c(=O)[nH]c(N)nc54)CC3O)C(CO)O2)c(=O)[nH]c1=O (centres undefined),GI50,SK-MEL-2,> 100 µM (inactive)
same,GI50,MDA-MB-231,> 100 µM (inactive)
same,GI50,SF-268,> 100 µM (inactive)
same,GI50,UACC-62,> 100 µM (inactive)
same,GI50,CCRF-CEM,> 100 µM (inactive)
same,GI50,EKVX,> 100 µM (inactive)
same,GI50,HOP-92,> 100 µM (inactive)
same,GI50,NCI-H226,> 100 µM (inactive)
same,GI50,KM12,> 100 µM (inactive)
same,GI50,MOLT-4,> 100 µM (inactive)
same,GI50,PC-3,> 100 µM (inactive)
same,GI50,K562,> 100 µM (inactive)
same,GI50,OVCAR-5,> 100 µM (inactive)
same,GI50,MCF7,> 100 µM (inactive)
same,GI50,HL-60,> 100 µM (inactive)
same,GI50,HCT-116,> 100 µM (inactive)
same,GI50,Malme-3M,> 100 µM (inactive)
same,GI50,IGROV-1,> 100 µM (inactive)
same,GI50,SK-MEL-5,> 100 µM (inactive)
same,GI50,SN12C,> 100 µM (inactive)
same,GI50,SNB-19,> 100 µM (inactive)
same,GI50,NCI/ADR-RES,> 100 µM (inactive)
same,GI50,T47D,> 100 µM (inactive)
same,GI50,M14,> 100 µM (inactive)
same,GI50,OVCAR-8,> 100 µM (inactive)
same,GI50,U-251,> 100 µM (inactive)
same,GI50,SR,> 100 µM (inactive)
same,GI50,RPMI-8226,> 100 µM (inactive)
same,GI50,OVCAR-4,> 100 µM (inactive)
same,GI50,RXF 393,> 100 µM (inactive)
same,GI50,786-0,> 100 µM (inactive)
same,GI50,NCI-H460,> 100 µM (inactive)
same,GI50,NCI-H522,> 100 µM (inactive)
same,GI50,CAKI-1,> 100 µM (inactive)
same,GI50,OVCAR-3,> 100 µM (inactive)
same,GI50,SNB-75,> 100 µM (inactive)
same,GI50,HCC 2998,> 100 µM (inactive)
same,GI50,A549,> 100 µM (inactive)
same,GI50,ACHN,> 100 µM (inactive)
same,GI50,SF-295,> 100 µM (inactive)
same,GI50,NCI-H23,> 100 µM (inactive)
same,GI50,UACC-257,> 100 µM (inactive)
same,GI50,HCT-15,> 100 µM
same,GI50,COLO 205,> 100 µM (inactive)
same,GI50,DU-145,> 100 µM (inactive)
same,GI50,A498,> 100 µM (inactive)
same,GI50,MDA-N,> 100 µM (inactive)
same,GI50,SF-539,> 100 µM (inactive)
same,GI50,UO-31,> 100 µM (inactive)
same,GI50,HT-29,> 100 µM (inactive)
same,GI50,HOP-62,> 100 µM (inactive)
